In PMC4381330, “Identification of a novel selective agonist of PPARγ with no promotion of adipogenesis and less inhibition of osteoblastogenesis” (Scientific Reports, 2015):

Columns and labels:
3T3-L1 preadipocytes = assay: Adipogenic differentiation of 3T3-L1 preadipocytes (Oil red O, triglyceride content); format: cell-based, mouse
Description: (§1) 3T3-L1 preadipocytes were grown to confluency in DMEM containing 10% CS. At 2 days post-confluency, the cells were stimulated with differentiation medium (DMEM containing 10% FBS, 10 μg/mL insulin, 1 μM dexamethasone, and 0.5 mM IBMX) for 48 h. Then, the cells were exposed in post-differentiation-maintaining medium (DMEM containing 10% FBS and 10 μg/mL insulin) for a further 48 h, which was replaced with expansion medium (DMEM containing 10% FBS) every 2 days after then. Compounds were added to the post-differentiation and expansion medium. At day 4, the cells were harvested for RNA preparation. At Day 8, the cells were fixed with 10% formaldehyde and stained with Oil red O solution. After washing with water, photos were taken. Solubilized dye was quantified at 550 nm. In addition, total triglyceride of the cells was measured by a total TG measurement kit (Applygene, China). Experiments were performed at least three times.

LXRβ = target: T1, LXRβ (Homo sapiens, UniProt P55055); assay: Receptor-specific transactivation, GAL4-LBD reporter in HEK293T cells; format: cell-based; conditions: 30 μM F12016
T1 construct: expressed in transfected cells; host or cells: HEK293T
T1 sequence (P55055 222-460 limits assumed): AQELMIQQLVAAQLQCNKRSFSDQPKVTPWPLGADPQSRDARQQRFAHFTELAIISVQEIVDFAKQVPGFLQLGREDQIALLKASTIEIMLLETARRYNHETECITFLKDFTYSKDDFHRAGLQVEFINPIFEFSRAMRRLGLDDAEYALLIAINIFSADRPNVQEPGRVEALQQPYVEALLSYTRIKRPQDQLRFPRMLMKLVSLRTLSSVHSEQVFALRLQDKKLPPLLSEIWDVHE
Description: (§2) HEK293T cells were cotransfected with a GAL4-pGL4-luc reporter and plasmids encoding various nuclear receptor LBDs fused with the GAL4 DNA-binding domain. […] LXR, liver X receptor; RXR, retinoid X receptor.
(§3) The determination of nuclear receptor activation was performed as previously. Briefly, HEK293T cells were transfected with GAL4-pGL4-luc reporter plasmid and pBIND-PPARγ-LBD expression plasmid using Lipofectamine 2000 (Invitrogen) for 6 h before treatment with compounds for 20–24 h. Activity was determined by the Luciferase Assay System (Promega).

RXR = assay: as above; format: cell-based; conditions: 30 μM F12016
Description: as §2, §3

PPARγ LBD mutants = format: cell-based, human; conditions: compared with wild-type PPARγ LBD
Description: All chemicals were purchased from Sigma-Aldrich (St. Louis, MO, USA). All medium and serum were obtained from Gibco (Invitrogen). […] Mutations in pBIND-PPARγ-LBD were created by site-directed mutagenesis using the Fast Mutagenesis System (TransGen Biotech, Beijing, China).
as §3

[1] = system: PPARγ target genes in differentiating 3T3-L1 cells; assay: Expression of adipogenesis-related and PPARγ-responsive genes in differentiating 3T3-L1 adipocytes (qPCR); format: cell-based, mouse
Description: as §1
(§4) Total RNA was extracted using TRIzol reagent (Invitrogen). First-strand cDNA was synthesized from the total RNA using a reverse transcriptional kit (TransGen). Quantitative PCR with SYBR Green (Roche Diagnostics, Lewes, UK) was performed on a Stratagene MX3000P real-time PCR system (Agilent). Melting curves were obtained, and the specificity of PCR products was checked on agarose gels. Relative mRNA expression was determined by the ΔΔCt method and normalized to GAPDH mRNA levels.

[2] = target: T2, human PPARγ-LBD (coactivator peptide recruitment) (Homo sapiens, UniProt P37231); assay: LanthaScreen TR-FRET coactivator peptide recruitment assay; format: biochemical
T2 construct: incubated with GST-fused human PPARγ-LBD, terbium-labeled anti-GST antibody; purchased Invitrogen
T2 sequence (P37231 238-503 limits assumed): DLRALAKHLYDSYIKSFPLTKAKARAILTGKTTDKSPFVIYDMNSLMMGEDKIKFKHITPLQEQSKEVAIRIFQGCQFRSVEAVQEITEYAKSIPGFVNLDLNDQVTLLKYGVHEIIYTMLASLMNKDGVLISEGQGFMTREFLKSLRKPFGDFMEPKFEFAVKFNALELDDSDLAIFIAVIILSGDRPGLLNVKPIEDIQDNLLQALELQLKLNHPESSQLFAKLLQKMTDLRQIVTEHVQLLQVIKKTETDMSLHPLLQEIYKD
Description: PPARγ coregulator peptide interaction assay was performed by the LanthaScreen TR-FRET PPARγ Coactivator Assay Kit (Invitrogen) according to the manufacturer's instructions. Serial concentrations of compounds were incubated with GST-fused human PPARγ-LBD, terbium-labeled anti-GST antibody and fluorescein-labeled peptide for 4 h. The measurement and data calculation were as above.

[3] = system: osteoblast marker genes in MC3T3-E1 cells; assay: Expression of osteoblast marker genes in MC3T3-E1 cells (qPCR); format: cell-based
Description: (§5) MC3T3-E1 cells were cultured in α-MEM to confluency in 24-well plates and then cultured in differentiation medium (α-MEM supplemented with 200 μM ascorbic acid and 10 mM β-glycerophosphate) for 7, 14, and 21 days, which was replaced every 3 days. The cells were treated with DMSO, rosiglitazone, or F12016 at the start of differentiation. At day 8, 15 and 22, total RNA was isolated, and real-time PCR was performed as described below.
as §4

MC3T3-E1 preosteoblasts = assay: Osteoblastic differentiation of MC3T3-E1 cells (Alizarin red S, Alp activity); format: cell-based; conditions: F12016 1, 10, 30 μM
Description: as §5
Mature osteoblasts were stained with Alizarin red S and Alp activity were measured at day 22. In brief, cells were fixed with 75% ethanol and stained with 40 mM Alizarin red S solution (pH 4.1–4.3) for 10 min. For Alp assay, the cells were harvested and sonicated on ice with two 30s-pulses. Supernatant of lysate was incubated with isopyknic 1.0 mg/ml pNPP (Sigma–aldrich) solution (1 M diethanolamine buffer, 0.5 mM magnesium chloride) for 30 min at 37°C. The reaction was measured at 405 nm. Relative ALP activity was normalized to the protein concentration.

2-[2-(1, 2-dimethyl-1H-indol-3-yl)-2-oxo-acetylamino]-benzamide [Compound F12016]
intracellular triglyceride (TG) content (3T3-L1 preadipocytes; 6 days of stimulation): significantly reduced TG accumulation compared with rosiglitazone
TG content of differentiating adipocytes at 30 μM compared with 10 μM (3T3-L1 preadipocytes; F12016 30 μM vs 10 μM): significantly less than that of 10 μM
lipid accumulation / intracellular lipid droplets (Oil red O staining) (3T3-L1 preadipocytes; RGZ 0.1, 1, 10 μM, F12016 1, 10, 30 μM): significantly reduced potency to form intracellular lipid droplets
lipid droplet size, F12016 vs rosiglitazone (3T3-L1 preadipocytes; supplementary Figure 2): no significant difference
transactivation of LXRβ (LXRβ): no effects
transactivation of RXR (RXR): no effects
activation of R288A, L340A and S342A mutants (PPARγ LBD mutants): reduced the ability of F12016 to activate PPARγ
activation of S289A, H323A, H449A and Y473A mutants (PPARγ LBD mutants): almost the same activity as the wild-type PPARγ LBD
AdipQ mRNA expression [1]: increased AdipQ mRNA expression
mRNA levels of 11β-HSD1 [1]: similarly decreased the mRNA levels
transcription of Pdk4 [1]: decreased transcription
expression of fatty acid synthase (Fasn) ([1]; both compounds to a similar extent): upregulated expression
expression of adipogenesis-related genes (CEBP/α, PEPCK, FABP4, CD36, Gyk, Elvol3, Cox7a1) ([1]; compared with rosiglitazone): induced much less expression
induction of lipoprotein lipase (LPL) ([1]; compared with rosiglitazone): less than that induced by rosiglitazone
EC50/IC50 CBP ([2]; cofactor peptide CBP): 0.349 µM
Efficacy CBP ([2]; cofactor peptide CBP, maximum recruitment relative to rosiglitazone): 10%
EC50/IC50 PGC-1α ([2]; cofactor peptide PGC-1α): 21.81 µM
Efficacy PGC-1α ([2]; cofactor peptide PGC-1α, maximum recruitment relative to rosiglitazone): 57%
EC50/IC50 RAP250 ([2]; cofactor peptide RAP250): 5.765 µM
Efficacy RAP250 ([2]; cofactor peptide RAP250, maximum recruitment relative to rosiglitazone): 25%
EC50/IC50 SRC1 ([2]; cofactor peptide SRC1): 17.65 µM
Efficacy SRC1 ([2]; cofactor peptide SRC1, maximum recruitment relative to rosiglitazone): 26%
EC50/IC50 SRC3 ([2]; cofactor peptide SRC3): 15.06 µM
Efficacy SRC3 ([2]; cofactor peptide SRC3, maximum recruitment relative to rosiglitazone): 23%
EC50/IC50 TIF2 ([2]; cofactor peptide TIF2): 6.437 µM
Efficacy TIF2 ([2]; cofactor peptide TIF2, maximum recruitment relative to rosiglitazone): 17%
EC50/IC50 TRAP220 ([2]; cofactor peptide TRAP220): 5.132 µM
Efficacy TRAP220 ([2]; cofactor peptide TRAP220, maximum recruitment relative to rosiglitazone): 17%
recruitment of SRC 1 and 3 and RAP250 to PPARγ ([2]; span over the three cofactors): 22–27 % of rosiglitazone
expression of Alp and Col1 ([3]; 7 days): increased expressions of Alp and Col1
expression of RANKL ([3]; 7 days, rosiglitazone 1 μM, compared with control): not significantly changed
expression of Ibsp and Bglap ([3]; Ibsp 14 days, Bglap 21 days): did not show any significant reductions
alkaline phosphatase (Alp) activity (MC3T3-E1 preosteoblasts): less reductions in mineralization and Alp activity
mineralization (Alizarin Red S) (MC3T3-E1 preosteoblasts): less reductions in mineralization
